Values joined by “and” are separate entries in the source; they are usually repeats but may differ in a detail not shown here. Equal entries are not always repeated. Where two headings read alike, the source gives them in different places. Marks after values point to notes of the source that are not given here. One block for each molecule: values may come before it.
Tests used:
[1] = system: Human Peripheral Blood Lymphocytes; assay: Thymidine incorporation assay: activation of human peripheral blood lymphocytes by phytohemagglutinin; assay type: cell-based; details: drug 30 min, then 10 μg/ml PHA 24 hrs, [3H]Thd incorporation
Protocol: Inhibitory Effects of Ardeemin Compounds on the Activation of Human Peripheral Blood Lymphocytes by Phytohemagglutinin
Thymidine Incorporation Assay:
PBL were exposed to various concentrations of drugs for 30 min and then added 10 μg/ml PHA for 24 hrs. [^3H]Thd (1 μCi/well) was then added and incubated for 1 hr. The reaction is stopped by adding 10% TCA for analysis of [^3H]Tdk incorporation into DNA.

[2] = system: P388/0 Tumors; assay type: in vivo; design: SURVIVAL TIME of individual mice (No. 1-6): unit: days
Protocol: Survival times were determined for B6D2F1 mice inoculated with P388/0 cells, 10^6 cells/mouse, i.p. at Day 0. The mice were treated by adriamycin and 5-N-acetylardeemin, i.p., daily for four days. Survival times were recorded based on the time of death with the following scheme of decimal values: 8AM (0.0), 1PM (0.25), 5PM (0.5). An in vivo immunosuppressive effect of the ardeemin derivatives is found which persistently […] the lifespan of P388 tumor-bearing B6D2F1 mice in a dose-dependent manner.

[3] = system: inflammation induced by carrageene; assay: Inflammation induced by carrageene in mice pedis; assay type: in vivo
Protocol: FIG. 3 illustrates the delayed treatment of inflammation induced by carrageene with aspirin, N-acetylardeemin and hydrocortisone. (●) Control; (▪) Aspirin (500 mg/kg, p.o.); (Δ) N-acetylardeemin (100 mg/kg, i.p.); (x) Hydrocortisone cream.
FIG. 4 illustrates the treatment of inflammation induced by carrageene with aspirin, N-acetylardeemin and hydrocortisone. (●) Control; (▪) Aspirin (500 mg/kg, p.o.); (Δ) N-acetylardeemin (100 mg/kg, i.p.); (x) Hydrocortisone cream.

[4] = system: inflammation induced by carrageene; assay: Inflammation induced by carrageene in mice pedis; assay type: in vivo; remark: listed apart in the source
[5] = system: peripheral blood lymphocytes stimulated by OKT3 antibody (anti-CD3); details: Classical immunosuppressant (historical data); read-out: IC50 OKT3 Assays; cited from earlier work
[6] = system: peripheral blood lymphocytes stimulated by PHA; details: Classical immunosuppressant (historical data); read-out: IC50 PHA Assays; cited from earlier work
[7] = system: peripheral blood lymphocytes stimulated by OKT3 antibody (anti-CD3); assay: OKT3 stimulation assay, [3H]TdR incorporation; assay type: cell-based, human; details: Reverse Prenyl Compounds, read-out: IC50 OKT3 Assays
Protocol: (§1) Fresh peripheral blood lymphocytes isolated by Ficoll-Hypaque density centrifugation are stimulated by PHA or the OKT3 antibody (anti-CD3), which stimulates via interaction with CD3. Stimulation is measured by incorporation of radioactive thymidine [(^3H)TdR] into proliferating cells, with an unhibited control signal of 48,000-75,000 cpm. IC50 values are estimated from inhibitions of proliferation observed at various drug concentrations.

[8] = system: peripheral blood lymphocytes stimulated by PHA; assay: PHA stimulation assay, [3H]TdR incorporation; assay type: cell-based, human; details: Reverse Prenyl Compounds, read-out: IC50 PHA Assays
Protocol: as §1

[9] = system: B6D2F1 mice; assay: Cumulative toxicity in B6D2F1 mice
Protocol: FIG. 2 illustrates the cumulative toxicity in B6D2F1 mice treated with multidrug resistance reversal agents (mg/kg,i.p.,QD). Each group consists of five mice. […] Cumulated doses in the series shown in panels A, B and C were 712.5, 1700 and 3950 mg/kg×day, respectively.

[10] = system: heterotopic cardiac transplants; assay: Heterotopic mouse cardiac transplants (prospective example); assay type: in vivo, mice; details: 40 mg/kg-1 mg/25 g per day, i.v., 7 or 14 days, Alzet pump
Protocol: 5-N-Acetylardeemin and 5-N-acetyl-8-desmethylardeemin are individually administered to mice which have received heterotopic cardiac transplants at a range of concentrations (40 mg/kg-1 mg/25 g per day), i.v., for seven days or fourteen days using an Alzet pump. Each compound is dissolved in DMSO at high concentration prior to administration. Control animals receive the same volume of carrier solvent (40 μL DMSO).

[11] = Adr 0.333 mg/kg i.p. daily Day 1-4
[12] = Adr 1.0 mg/kg i.p. daily Day 1-4
[13] = Adr 3.0 mg/kg i.p. daily Day 1-4
[14] = 5NAcArd 3.33 mg/kg i.p. daily Day 1-4
[15] = 5NAcArd 10 mg/kg i.p. daily Day 1-4
[16] = 5NAcArd 30 mg/kg i.p. daily Day 1-4

IC50 ([1]; Homo sapiens, Lymphocyte): 28200 nM
Molecule: C[C@@H]1C[C@H]2[C@@H]3CCC4=CC(=O)C=C[C@]4(C)[C@@]3(F)[C@@H](O)C[C@]2(C)[C@@]1(O)C(=O)CO [Dexamethasone, reference compound]

Molecule: COc1cccc2c1C(=O)c1c(O)c3c(c(O)c1C2=O)C[C@@](O)(C(=O)CO)C[C@@H]3O[C@H]1C[C@H](N)[C@H](O)[C@H](C)O1 [Adr, adriamycin, reference compound]
% ILS (% increase in lifespan) [2, 11]: 85%
MST (mean survival time) [2, 11]: 13.75
% ILS (% increase in lifespan) [2, 12]: 129%
MST (mean survival time) [2, 12]: 17.0
% ILS (% increase in lifespan) [2, 13]: 145%
MST (mean survival time) [2, 13]: 18.19

Molecule: CC(=O)Oc1ccccc1C(=O)O [Aspirin]
Average Pedis Area, Hours: 0 ([3]; 500 mg/kg p.o.): 6.8 mm^2
Average Pedis Area, Hours: 0 ([4]; 250 mg/kg p.o.): 6.9 mm^2
Average Pedis Area, Hours: 12 ([4]; 250 mg/kg p.o.): 12.5 mm^2
Average Pedis Area, Hours: 24 ([4]; 250 mg/kg p.o.): 12.3 mm^2
Average Pedis Area, Hours: 48 ([4]; 250 mg/kg p.o.): 13.2 mm^2
Average Pedis Area, Hours: 60 ([4]; 250 mg/kg p.o.): 15.4** mm^2
Toxicity Death ([4]; 250 mg/kg p.o.): 0/5
Average Pedis Area, Hours: 12 ([4]; 500 mg/kg p.o.): 9.9** mm^2
Average Pedis Area, Hours: 24 ([4]; 500 mg/kg p.o.): 10.6** mm^2
Average Pedis Area, Hours: 48 ([4]; 500 mg/kg p.o.): 9.0*** mm^2
Average Pedis Area, Hours: 60 ([4]; 500 mg/kg p.o.): 10.0*** mm^2
Toxicity Death ([4]; 500 mg/kg p.o.): 0/5
Average Pedis Area, Hours: 0 ([4]; 1000 mg/kg p.o.): 6.5 mm^2
Average Pedis Area, Hours: 12 ([4]; 1000 mg/kg p.o.): 8.8*** mm^2
Toxicity Death ([4]; 1000 mg/kg p.o.): 5/6

Molecule: C[C@]12CCC(=O)C=C1CC[C@@H]1[C@@H]2[C@@H](O)C[C@@]2(C)[C@H]1CC[C@]2(O)C(=O)CO [Hydrocortisone]
Average Pedis Area, Hours: 12 ([3]; 1% Cream, Skin): 9.0*** mm^2
Toxicity Death ([3]; 1% Cream, Skin): 0/5
Average Pedis Area, Hours: 0 ([4]; 1% Cream, Skin): 6.9 mm^2
Average Pedis Area, Hours: 24 ([4]; 1% Cream, Skin): 8.9*** mm^2
Average Pedis Area, Hours: 48 ([4]; 1% Cream, Skin): 7.8*** mm^2
Average Pedis Area, Hours: 60 ([4]; 1% Cream, Skin): 7.9*** mm^2

Molecule: S=c1nc[nH]c2nc[nH]c12 [6-MP]
IC50 [5]: 136 ± 19 nM
IC50 [6]: 44 ± 17 nM

IC50 [7]: 12 ± 0.51 µM
IC50 [8]: 5.48 ± 1.24 µM
Molecule: C=CC(C)(C)[C@@]12Nc3ccccc3[C@]1(O)C[C@H]1C(=O)N3[C@@H](C[C@]4(O)c5ccccc5N[C@]34C(C)(C)C=C)C(=O)N12 [Gypsetin]

Molecule: COc1c(C)c2c(c(O)c1C/C=C(\C)CCC(=O)O)C(=O)OC2 [MPA]
IC50 [5]: 416 ± 210 nM
IC50 [6]: 95 ± 27 nM

Molecule: C=CC(C)(C)[C@@]12C[C@H]3c4nc5ccccc5c(=O)n4[C@H](C)C(=O)N3[C@@H]1N(C(C)=O)c1ccccc12 [5-N-acetylardeemin]
IC50 [7]: 31.9 µM
toxicity to mice ([9]; FIG. 2, i.p., QD): relatively nontoxic
resistance of organ transplant to graft rejection vs control mice [10]: more resistant to graft rejection
Average Pedis Area, Hours: 0 ([3]; 100 mg/kg i.p.): 7.1 mm^2
Average Pedis Area, Hours: 60 ([3]; 100 mg/kg i.p.): 10.2*** mm^2
Toxicity Death ([3]; 100 mg/kg i.p.): 0/5
IC50 [8]: 7.96 µM
Average Pedis Area, Hours: 0 ([4]; 50 mg/kg i.p.): 6.8 mm^2
Average Pedis Area, Hours: 12 ([4]; 50 mg/kg i.p.): 12.4 mm^2
Average Pedis Area, Hours: 24 ([4]; 50 mg/kg i.p.): 12.7 mm^2
Average Pedis Area, Hours: 48 ([4]; 50 mg/kg i.p.): 11.3* mm^2
Average Pedis Area, Hours: 60 ([4]; 50 mg/kg i.p.): 15.6 mm^2
Toxicity Death ([4]; 50 mg/kg i.p.): 0/5
Average Pedis Area, Hours: 12 ([4]; 100 mg/kg i.p.): 9.7*** mm^2
Average Pedis Area, Hours: 24 ([4]; 100 mg/kg i.p.): 9.0*** mm^2
Average Pedis Area, Hours: 48 ([4]; 100 mg/kg i.p.): 8.6*** mm^2
IC50 [1]: 1910 nM
% ILS (% increase in lifespan) [2, 14]: −2%
AWC D 4 [2, 14]: +0.9 Gm
AWC D 6 [2, 14]: +3.3 Gm
MST (mean survival time) [2, 14]: 7.25
SURVIVAL TIME of individual mice (No. 1-6) [2, 14]: 8.0 (2×) and 6.0 and 7.0
% ILS (% increase in lifespan) [2, 15]: −10%
AWC D 4 [2, 15]: +1.7 Gm
AWC D 6 [2, 15]: +4.8 Gm
MST (mean survival time) [2, 15]: 6.67
SURVIVAL TIME of individual mice (No. 1-6) [2, 15]: 7.5 and 6.0 and 6.5
% ILS (% increase in lifespan) [2, 16]: −16%
AWC D 4 [2, 16]: +1.6 Gm
AWC D 6 [2, 16]: +3.8 Gm
MST (mean survival time) [2, 16]: 6.25
SURVIVAL TIME of individual mice (No. 1-6) [2, 16]: 6.0 and 6.5

IC50 [1]: 11200 nM
Molecule: Cc1c(-c2ccc(-c3ccccc3F)cc2)nc2ccc(F)cc2c1C(=O)O [Brequinard]
IC50 [5]: 56600 ± 22700 nM
IC50 [6]: 11200 ± 4000 nM

IC50 [7]: 4.56 µM
IC50 [8]: 9.97 ± 1.49 µM
Molecule: 5-N-Ac-F3-Ardeemin

Molecule: C=CC(C)(C)[C@@]12C[C@H]3c4nc5ccccc5c(=O)n4CC(=O)N3[C@@H]1N(C(C)=O)c1ccccc12 [5-N-acetyl-8-demethylardeemin, 5-N-acetyl-8-desmethylardeemin]
IC50 [7]: 1.13 ± 0.13 µM
toxicity to mice ([9]; FIG. 2, i.p., QD): very nontoxic
toxicity to mice ([9]; sequential 100 mg/kg i.p. QDx6, 150 mg/kg QDx8, 200 mg/kg QDx3, 300 mg/kg QDx3): non-toxic
average body weight decreases ([9]; up to 250 mg/kg, Qdx3): less than 0.5 g
resistance of organ transplant to graft rejection vs control mice [10]: more resistant to graft rejection
IC50 ([8]; listed as 5-N-Ac-8-desmethylardeemin): 1.2 ± 0.02 µM
IC50 [1]: 980 nM

IC50 ([1]; Homo sapiens, Lymphocyte): 610 nM
Molecule: CO[C@H]1C[C@@H]2CC[C@@H](C)[C@@](O)(O2)C(=O)C(=O)N2CCCC[C@H]2C(=O)O[C@H]([C@H](C)C[C@@H]2CC[C@@H](O)[C@H](OC)C2)CC(=O)[C@H](C)/C=C(\C)[C@@H](O)[C@@H](OC)C(=O)[C@H](C)C[C@H](C)/C=C/C=C/C=C/1C [Rapamycine, reference compound]

IC50 ([7]; listed as 8-Desmethylardeemin): 2.23 ± 0.16 µM
IC50 ([7]; listed as 8-desmethylardeemin): 1.2 to 2.3 µM
IC50 ([8]; listed as 8-Desmethylardeemin): 2.26 ± 0.06 µM
IC50 [1]: 2260 nM
Molecule: 8-demethylardeemin

Source: patent US6355639B1, “Reverse prenyl compounds as immunosuppressants” (Sloan-Kettering Institute for Cancer Research, priority 1997, dated 2002)
